Data: publication PMC12748766, “Structural basis for human chondroitin sulfate chain polymerization” (Nature Communications, 2025)

Experiments:
CHSY3-CHPF complex [1] = target: T1, CHSY3-CHPF complex (Homo sapiens, UniProt Q70JA7); test: FACE gel glycosylation assay; type: biochemical; settings: Mn2+ and Mg2+, pH 6.5, 30 C
T1 construct: secreted luminal part of both chains (TM helix removed), HEK Freestyle 293-F; N-terminal RPTP sigma signal, SUMO, His6 cut with 3C; C-terminal Avi (CHSY3), 3C site and twin-Strep (CHPF); heterodimer, expected 165 kDa; with Chondroitin sulfate synthase 2
T1 sequence (Q70JA7 157-882): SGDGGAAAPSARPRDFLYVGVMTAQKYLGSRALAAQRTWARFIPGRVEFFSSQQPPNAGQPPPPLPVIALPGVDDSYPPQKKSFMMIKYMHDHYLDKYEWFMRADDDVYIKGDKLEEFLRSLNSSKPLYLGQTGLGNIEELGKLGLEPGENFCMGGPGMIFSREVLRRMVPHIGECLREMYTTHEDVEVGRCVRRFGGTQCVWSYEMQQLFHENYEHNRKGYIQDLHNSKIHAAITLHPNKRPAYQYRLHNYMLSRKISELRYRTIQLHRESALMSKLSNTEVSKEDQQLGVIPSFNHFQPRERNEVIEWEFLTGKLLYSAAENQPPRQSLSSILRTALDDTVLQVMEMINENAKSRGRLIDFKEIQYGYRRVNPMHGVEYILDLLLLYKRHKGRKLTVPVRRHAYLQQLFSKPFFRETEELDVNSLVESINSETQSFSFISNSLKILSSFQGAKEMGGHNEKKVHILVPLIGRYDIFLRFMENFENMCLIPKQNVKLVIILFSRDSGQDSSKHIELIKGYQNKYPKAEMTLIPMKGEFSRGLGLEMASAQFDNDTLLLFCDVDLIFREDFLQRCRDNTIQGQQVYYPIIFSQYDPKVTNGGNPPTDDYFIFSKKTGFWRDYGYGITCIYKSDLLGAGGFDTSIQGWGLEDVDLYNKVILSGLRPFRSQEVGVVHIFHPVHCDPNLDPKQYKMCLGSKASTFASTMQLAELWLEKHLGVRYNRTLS
T1 sequence (Q8IZ52 81-775 partner): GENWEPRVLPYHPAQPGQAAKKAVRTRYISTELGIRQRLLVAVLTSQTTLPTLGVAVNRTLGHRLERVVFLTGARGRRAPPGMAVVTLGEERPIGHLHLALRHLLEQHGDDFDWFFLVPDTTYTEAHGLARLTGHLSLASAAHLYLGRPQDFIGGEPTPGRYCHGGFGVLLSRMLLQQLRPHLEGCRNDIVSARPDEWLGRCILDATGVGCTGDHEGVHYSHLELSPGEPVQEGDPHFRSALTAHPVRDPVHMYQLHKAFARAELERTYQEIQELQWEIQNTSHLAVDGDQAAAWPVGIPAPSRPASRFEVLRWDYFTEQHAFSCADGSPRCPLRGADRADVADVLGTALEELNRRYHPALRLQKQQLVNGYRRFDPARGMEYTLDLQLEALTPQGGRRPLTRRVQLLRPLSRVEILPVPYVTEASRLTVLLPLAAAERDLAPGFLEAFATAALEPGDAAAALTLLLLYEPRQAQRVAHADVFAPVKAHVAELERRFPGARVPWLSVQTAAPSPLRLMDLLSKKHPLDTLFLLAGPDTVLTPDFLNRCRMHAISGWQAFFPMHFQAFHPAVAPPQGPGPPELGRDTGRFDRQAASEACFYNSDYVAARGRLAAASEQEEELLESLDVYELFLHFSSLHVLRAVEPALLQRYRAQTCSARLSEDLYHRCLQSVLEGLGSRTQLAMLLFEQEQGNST

CHSY1-CHPF2 complex = target: T2, CHSY1-CHPF2 complex (Homo sapiens, UniProt Q86X52); test: FACE gel glycosylation assay; type: biochemical; settings: acceptor TAMRA-labelled Penta-CSF1 glycopeptide, Mn2+ and Mg2+, pH 6.5, 30 C
T2 construct: secreted luminal part of both chains (TM helix removed), HEK Freestyle 293-F; N-terminal SUMO, His6 cut with 3C; C-terminal Avi (CHSY1), 3C site and twin-Strep (CHPF2); heterodimer, expected 169 kDa; with Chondroitin sulfate glucuronyltransferase
T2 sequence (Q86X52 68-802): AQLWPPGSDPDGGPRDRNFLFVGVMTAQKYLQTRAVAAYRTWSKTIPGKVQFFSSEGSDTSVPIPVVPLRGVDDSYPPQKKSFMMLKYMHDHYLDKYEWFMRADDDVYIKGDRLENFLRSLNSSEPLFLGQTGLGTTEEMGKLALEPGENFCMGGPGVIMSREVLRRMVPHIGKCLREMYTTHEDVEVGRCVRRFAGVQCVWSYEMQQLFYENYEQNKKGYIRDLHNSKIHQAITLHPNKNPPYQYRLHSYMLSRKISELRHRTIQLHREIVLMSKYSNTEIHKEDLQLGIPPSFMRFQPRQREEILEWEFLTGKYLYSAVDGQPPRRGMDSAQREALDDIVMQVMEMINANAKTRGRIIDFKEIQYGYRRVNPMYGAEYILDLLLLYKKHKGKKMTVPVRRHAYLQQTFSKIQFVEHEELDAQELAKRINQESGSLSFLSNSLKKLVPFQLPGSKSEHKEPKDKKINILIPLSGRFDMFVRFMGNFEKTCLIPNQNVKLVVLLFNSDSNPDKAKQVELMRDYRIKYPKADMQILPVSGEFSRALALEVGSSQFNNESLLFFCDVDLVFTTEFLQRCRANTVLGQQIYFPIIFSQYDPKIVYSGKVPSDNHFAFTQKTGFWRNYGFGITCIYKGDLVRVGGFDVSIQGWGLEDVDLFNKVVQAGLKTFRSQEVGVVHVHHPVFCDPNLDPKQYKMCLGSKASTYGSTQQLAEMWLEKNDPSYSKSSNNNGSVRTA
T2 sequence (Q9P2E5 57-772 partner): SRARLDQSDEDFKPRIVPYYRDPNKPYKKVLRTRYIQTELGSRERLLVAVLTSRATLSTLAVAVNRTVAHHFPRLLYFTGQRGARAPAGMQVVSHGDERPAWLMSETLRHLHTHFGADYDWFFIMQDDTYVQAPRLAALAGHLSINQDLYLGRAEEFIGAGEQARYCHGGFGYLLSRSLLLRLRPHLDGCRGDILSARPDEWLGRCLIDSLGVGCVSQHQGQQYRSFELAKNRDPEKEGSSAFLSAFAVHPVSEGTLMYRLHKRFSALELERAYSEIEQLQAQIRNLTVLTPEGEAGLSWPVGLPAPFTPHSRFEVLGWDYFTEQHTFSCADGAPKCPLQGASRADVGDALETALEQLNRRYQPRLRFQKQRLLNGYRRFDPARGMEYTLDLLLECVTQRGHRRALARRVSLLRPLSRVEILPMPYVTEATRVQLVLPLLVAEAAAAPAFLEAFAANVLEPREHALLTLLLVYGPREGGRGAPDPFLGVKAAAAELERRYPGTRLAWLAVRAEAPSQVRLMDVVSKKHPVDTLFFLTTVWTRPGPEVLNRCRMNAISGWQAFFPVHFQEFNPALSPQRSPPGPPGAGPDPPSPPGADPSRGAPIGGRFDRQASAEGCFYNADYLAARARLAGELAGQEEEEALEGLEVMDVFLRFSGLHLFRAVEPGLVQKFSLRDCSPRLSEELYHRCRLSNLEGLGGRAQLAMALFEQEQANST

CHSY3-CHPF2 complex = target: T3, CHSY3-CHPF2 complex (Homo sapiens, UniProt Q70JA7); test: FACE gel glycosylation assay; type: biochemical; settings: acceptor TAMRA-labelled Penta-CSF1 glycopeptide, Mn2+ and Mg2+, pH 6.5, 30 C
T3 construct: secreted luminal part of both chains (TM helix removed), HEK Freestyle 293-F; N-terminal SUMO, His6 cut with 3C; C-terminal Avi (CHSY3), 3C site and twin-Strep (CHPF2); heterodimer, expected 167 kDa; with Chondroitin sulfate glucuronyltransferase
T3 sequence (Q70JA7 157-882): T1 sequence (Q70JA7 157-882)
T3 sequence (Q9P2E5 57-772 partner): T2 sequence (Q9P2E5 57-772 partner)

CHSY1-CHPF complex = target: T4, CHSY1-CHPF complex (Homo sapiens, UniProt Q86X52); test: FACE gel glycosylation assay; type: biochemical; settings: acceptor TAMRA-labelled Penta-CSF1 glycopeptide, Mn2+ and Mg2+, pH 6.5, 30 C
T4 construct: secreted luminal part of both chains (TM helix removed), HEK Freestyle 293-F; N-terminal SUMO, His6 cut with 3C; C-terminal Avi (CHSY1), 3C site and twin-Strep (CHPF); heterodimer, expected 167 kDa; with Chondroitin sulfate synthase 2
T4 sequence (Q86X52 68-802): T2 sequence (Q86X52 68-802)
T4 sequence (Q8IZ52 81-775 partner): T1 sequence (Q8IZ52 81-775 partner)

CHSY3-CHPF complex [2] = target: T1, CHSY3-CHPF complex; test: cryo-EM structure, […] A; type: binding; settings: 10 mM UDP, Mn2+, pH 6.5; bound in N-terminal GT31 (GlcA-T) active site of CHSY3
[3] = target: T5, Chondroitin Sulfate Synthase-3 (CHSY3), secreted N-terminally truncated construct aa157-aa882 (human, UniProt Q70JA7 157-882); test: mass photometry; Refeyn OneMP; purified complexes diluted in 20 mM MES pH 6.5, 150 mM NaCl to around 25 nM; settings: both partners purified
T5 construct: CHSY3, human, UniProt Q70JA7, residues 157-882 (membrane-spanning helix removed); Construct in pHR-CMV-TetO2 with an N-terminal chicken RPTP sigma signal peptide, SUMO, 6x His and a 3C site; no cleavage site before the C-terminal Avi tag; source: Freestyle 293-F cells, co-transfected, secreted; purified from the supernatant (HisTrap, 3C protease, second HisTrap); not shown: SUMO, N-terminal, …
T5 sequence (looked up): T1 sequence (Q70JA7 157-882)

[4] = target: T6, Chondroitin Sulfate Synthase-1 (CHSY1), secreted N-terminally truncated construct aa68-aa802 (human, UniProt Q86X52 68-802); test: as above; settings: both partners purified
T6 construct: CHSY1, human, UniProt Q86X52, residues 68-802 (membrane-spanning helix removed); Construct in pHR-CMV-TetO2 with an N-terminal chicken RPTP sigma signal peptide, SUMO, 6x His and a 3C site; no cleavage site before the C-terminal Avi tag; source: Freestyle 293-F cells, co-transfected, secreted; purified from the supernatant (HisTrap, 3C protease, second HisTrap); not shown: SUMO, N-terminal, …
T6 sequence (looked up): T2 sequence (Q86X52 68-802)

CC(=O)N[C@H]1[C@@H](OP(=O)(O)OP(=O)(O)OC[C@H]2O[C@@H](n3ccc(=O)[nH]c3=O)[C@H](O)[C@@H]2O)O[C@H](CO)[C@H](O)[C@@H]1O [UDP-GalNAc]
FACE gel glycosylation assay (CHSY3-CHPF complex [1]; acceptor TAMRA-labelled Hexa-CSF1 glycopeptide, co-donor UDP-GlcA, C-terminal GT7 site of CHSY3): wild-type CHSY3-CHPF complex efficiently elongated the Penta-CSF1 and Hexa-CSF1 substrates into high molecular weight chains
FACE gel glycosylation assay (CHSY1-CHPF2 complex; co-donor UDP-GlcA): All four purified CS polymerase complexes were able to elongate the CS chain
FACE gel glycosylation assay (CHSY3-CHPF2 complex; co-donor UDP-GlcA): All four purified CS polymerase complexes were able to elongate the CS chain
FACE gel glycosylation assay (CHSY1-CHPF complex; co-donor UDP-GlcA): All four purified CS polymerase complexes were able to elongate the CS chain

O=c1ccn([C@@H]2O[C@H](COP(=O)(O)OP(=O)(O)O)[C@@H](O)[C@H]2O)c(=O)[nH]1 [UDP]
cryo-EM structure, 3.0 A (CHSY3-CHPF complex [2]): We identified one UDP molecule bound in the CHSY3 GlcA-T active site.

O=C(O)[C@H]1O[C@H](OP(=O)(O)OP(=O)(O)OC[C@H]2O[C@@H](n3ccc(=O)[nH]c3=O)[C@H](O)[C@@H]2O)[C@H](O)[C@@H](O)[C@@H]1O [UDP-GlcA]
FACE gel glycosylation assay (CHSY3-CHPF complex [1]; acceptor TAMRA-labelled Penta-CSF1 glycopeptide, co-donor UDP-GalNAc, N-terminal GT31 site of CHSY3): wild-type CHSY3-CHPF complex efficiently elongated the Penta-CSF1 and Hexa-CSF1 substrates into high molecular weight chains
FACE gel glycosylation assay (CHSY1-CHPF2 complex; co-donor UDP-GalNAc): All four purified CS polymerase complexes were able to elongate the CS chain
FACE gel glycosylation assay (CHSY3-CHPF2 complex; co-donor UDP-GalNAc): All four purified CS polymerase complexes were able to elongate the CS chain
FACE gel glycosylation assay (CHSY1-CHPF complex; co-donor UDP-GalNAc): All four purified CS polymerase complexes were able to elongate the CS chain

B1: Chondroitin Polymerization Factor-2 (CHPF2), secreted N-terminally truncated construct aa57-aa772 (domain or fragment, human, UniProt Q9P2E5 57-772, looked up)
chain: T2 sequence (Q9P2E5 57-772 partner)
notes: CHPF2, human, UniProt Q9P2E5, residues 57-772 (membrane-spanning helix removed); Construct in pHR-CMV-TetO2 with an N-terminal chicken RPTP sigma signal peptide, SUMO, 6x His and a 3C site; a second 3C site stands before the C-terminal twin streptavidin tag; also called CSGlcA-T; source: Freestyle 293-F cells, co-transfected, secreted; purified from the supernatant (HisTrap, 3C protease, second …)
binding result [3]: binds
binding result [4]: binds
